Reference: patent EP2975030B1, “DIHYDROPYRIDAZINE-3,5-DIONE DERIVATIVE” (Chugai Seiyaku Kabushiki Kaisha, priority 2013, dated 2014)

tested on: rat small-intestinal brush border membrane vesicles; experiment: Inhibitory effect on 33PO4 uptake into rat small-intestinal brush border membrane vesicles (rapid filtration method); type: biochemical, Wistar female rat; details: 1 µM test compound; 33PO4 uptake into rat small-intestinal BBMVs, 60 seconds
In short: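 Uptake was terminated by ice-cold 110 mM NaCl, 1 mM KH2PO4, 10 mM HEPES (pH 7.5) buffer and immediate suction filtration, then washing. Using rat small-intestinal BBMVs, retained 33PO4 was quantified by liquid scintillation counting as transport activity.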

SMILES | Rate of uptake inhibition (%) (1 µM)
C[C@]12CCCN1N(Cc1ccc(OCCCCOC[C@H](O)CO)c(F)c1F)C(=O)C(C(=O)Nc1ccc(Cl)cc1-c1ccc(C(F)(F)F)nc1)=C2O [Example 121, (4aR)-N-[4-Chloro-2-[6-(trifluoromethyl)pyridin-3-yl]phenyl]-1-[[4-[4-[(2R)-2,3-dihydroxypropoxy]butoxy]-2,3-difluorophenyl]methy]-4-hydroxy-4a-methyl-2-oxo-6,7-dihydro-5H-pyrrolo[1,2-b]pyridazine-3-carboxamide] | 72%
COc1cc(-c2cc(C(F)(F)F)ccc2NC(=O)C2=C(O)C(C)(C)N(C)N(Cc3cccc(F)c3F)C2=O)cnc1C#N [Example 302] | 79%
C[C@]12CCCN1N(Cc1cc(Cl)ccc1F)C(=O)C(C(=O)Nc1ccc(C(F)(F)F)cc1-c1cc(C(F)(F)F)ncn1)=C2O [Example 211] | 72%
COc1cccc(-c2cc(C(F)(F)F)ccc2NC(=O)C2=C(O)[C@@]3(C)CCCN3N(Cc3ccc(OC4CCOCC4)c(F)c3F)C2=O)c1OC [Example 158] | 84%
CSc1ccc(-c2cc(C(F)(F)F)ccc2NC(=O)C2=C(O)[C@@]3(C)CCCN3N(Cc3ccc(C#CCCCCC(=O)O)c(F)c3F)C2=O)cn1 [Example 117, 7-[4-[[(4aR)-4-Hydroxy-4a-methyl-3-[[2-(6-methylsulfanylpyridin-3-yl)-4-(trifluoromethyl)phenyl]carbamoyl]-2-oxo-6,7-dihydro-5H-pyrrolo[1,2-b]pyridazin-1-yl]methyl]-2,3-difluorophenyl]hept-6-ynoate] | 78%
CN(C)C(=O)N1CCN(CCOc2ccc(CN3C(=O)C(C(=O)Nc4ccc(C(F)(F)F)cc4-c4cc(C(F)(F)F)ncn4)=C(O)C4(CCC4)N3C)c(F)c2F)CC1 [Example 364] | 36%
C[C@]12CCCN1N(Cc1ccccc1C#N)C(=O)C(C(=O)Nc1ccc(C(F)(F)F)cc1-c1cc(C(F)(F)F)ncn1)=C2O [Example 178] | 81%
C[C@]12CCCN1N(Cc1ccc(F)cc1)C(=O)C(C(=O)Nc1ccc(C(F)(F)F)cc1-c1ccc(C(F)(F)F)nc1)=C2O [Example 199] | 79%
Cc1c(C#N)ncnc1-c1cc(Cl)ccc1NC(=O)C1=C(O)[C@H](C(C)(C)C)N(C)N(Cc2ccc(OCCN3CCOCC3)c(F)c2F)C1=O [Example 274] | 43%
CN1N(Cc2cccc(F)c2F)C(=O)C(C(=O)Nc2ccc(C(F)(F)F)cc2-c2ccc(S(=O)(=O)N(C)C)cc2)=C(O)C1(C)C [Example 308] | 63%
C[C@]12CCCN1N(Cc1cc(F)ccc1F)C(=O)C(C(=O)Nc1cc(F)c(Br)c(F)c1)=C2O [Example 193] | 82%
C[C@]12CCCN1N(Cc1ccc(OCCN3CCOCC3)c(Cl)c1)C(=O)C(C(=O)Nc1ccc(C(F)(F)F)cc1-c1ccc(C(F)(F)F)nc1)=C2O [Example 149, (4aR)-1-[[3-Chloro-4-(2-morpholin-4-ylethoxy)phenyl]methyl]-4-hydroxy-4a-methyl-2-oxo-N-[4-(trifluoromethyl)-2-[6-(trifluoromethyl)pyridin-3-yl]phenyl]-6,7-dihydro-5H-pyrrolo[1,2-b]pyridazine-3-carboxamide] | 80%
CC(C)[C@H]1C(O)=C(C(=O)Nc2ccc(C(F)(F)F)cc2-c2cc(C(F)(F)F)ncn2)C(=O)N(Cc2cccc(F)c2F)N1C [Example 252] | 53%
CN1[C@@H](C(C)(C)C)C(O)=C(C(=O)Nc2ccc(Cl)cc2-c2cc(C#N)ncn2)C(=O)N1Cc1ccc(OCCN2CCOCC2)c(F)c1F [Example 272] | 43%
COC(=O)COc1ccc(CN2C(=O)C(C(=O)Nc3ccc(C(F)(F)F)cc3-c3ccc(C(F)(F)F)nc3)=C(O)[C@@]3(C)CCCN23)c(F)c1F [Example 150, Methyl 2-[4-[[(4aR)-4-Hydroxy-4a-methyl-2-oxo-3-[[4-(trifluoromethyl)-2-[6-(trifluoromethyl)pyridin-3-yl]phenyl]carbamoyl]-6,7-dihydro-5H-pyrrolo[1,2-b]pyridazin-1-yl]methyl]-2,3-difluorophenoxy] acetate] | 87%
CN1N(Cc2cccc(F)c2F)C(=O)C(C(=O)Nc2ccc(C(F)(F)F)cc2-c2cc(C(F)(F)F)ncn2)=C(O)C12CCC2 [Example 300] | 74%
COc1cc(C)c(-c2cc(C(F)(F)F)ccc2NC(=O)C2=C(O)[C@@]3(C)CCCN3N(Cc3cccc(F)c3F)C2=O)cn1 [Example 80] | 75%
C[C@]12CCCN1N(Cc1c(F)cc(C#CCN3CCOCC3)cc1F)C(=O)C(C(=O)Nc1ccc(C(F)(F)F)cc1-c1ccc(C(F)(F)F)nc1)=C2O [Example 132] | 71%
CN1[C@@H](C(C)(C)C)C(O)=C(C(=O)Nc2ccc(C(F)(F)F)cc2-c2ccc(C(F)(F)F)nc2)C(=O)N1Cc1ccc(OCCN2CCOCC2)c(F)c1F [Example 266] | 62%
COc1cccc(-c2cc(C(F)(F)F)ccc2NC(=O)C2=C(O)[C@@]3(C)CCCN3N(Cc3ccc(C#CCOCCCO)c(F)c3F)C2=O)c1OC [Example 127] | 95%
CC(C)[C@@H]1C(O)=C(C(=O)Nc2ccc(Cl)cc2-c2ccc(C(F)(F)F)nc2)C(=O)N(Cc2cccc(F)c2F)N1C [Example 251] | 43%
Cc1nc(NC(=O)C2=C(O)C3(CCCC3)N(C)N(Cc3cccc(F)c3F)C2=O)ccc1Br [Example 262] | 43%
C[C@]12CCCN1N(Cc1cc(F)ccc1F)C(=O)C(C(=O)Nc1ccc(C(F)(F)F)cc1-c1ccc(C(F)(F)F)nc1)=C2O [Example 172] | 72%
CN1N(Cc2ccc(OCCN3CCC(N4CCOCC4)CC3)c(F)c2F)C(=O)C(C(=O)Nc2ccc(C(F)(F)F)cc2-c2cc(C(F)(F)F)ncn2)=C(O)C12CCC2 [Example 358] | 34%
Cc1cccc(CN2C(=O)C(C(=O)Nc3ccc(C(F)(F)F)cc3-c3ccc(C(F)(F)F)nc3)=C(O)[C@@]3(C)CCCN23)c1F [Example 205] | 86%
C[C@]12CCCN1N(Cc1ccc(F)c(Br)c1)C(=O)C(C(=O)Nc1ccc(C(F)(F)F)cc1-c1cc(C(F)(F)F)ncn1)=C2O [Example 184] | 79%
CN1N(Cc2ccc(OCCCOCCO)c(F)c2F)C(=O)C(C(=O)Nc2ccc(C(F)(F)F)cc2-c2cc(C(F)(F)F)ncn2)=C(O)C12CCCC2 [Example 395] | 39%
Cc1c(C#N)ncnc1-c1cc(C(F)(F)F)ccc1NC(=O)C1=C(O)C(C)(C)N(C)N(Cc2cccc(F)c2F)C1=O [Example 311] | 65%
CN1N(Cc2ccc(OCCCCOCCO)c(F)c2F)C(=O)C(C(=O)Nc2ccc(C(F)(F)F)cc2-c2cc(C(F)(F)F)ncn2)=C(O)C12CCCC2 [Example 396] | 38%
C[C@]12CCCN1N(Cc1ccc(SCCN3CCOCC3)c(F)c1F)C(=O)C(C(=O)Nc1ccc(C(F)(F)F)cc1-c1ccc(C(F)(F)F)nc1)=C2O.Cl [Example 163, (4aR)-1-[[2,3-Difluoro-4-(2-morpholin-4-ylethylsulfanyl)phenyl]methyl]-4-hydroxy-4a-methyl-2-oxo-N-(4-(trifluoromethyl)-2-[6-(trifluoromethyl)pyridin-3-yl]phenyl)-6,7-dihydro-5H-pyrrolo[1,2-b]pyridazine-3-carboxamide hydrochloride] | 79%
